8 compounds from ChEMBL document CHEMBL5136986, “DYRK1A inhibitors for disease therapy: Current status and perspectives” (Eur J Med Chem, 2022) can be followed below.

Assay [1] addresses T1, Dual specificity tyrosine-phosphorylation-regulated kinase 1A (Homo sapiens, UniProt Q13627). Put plainly: Inhibition of N-terminal 6His-tagged recombinant human DYRK1A ([…] residues) expressed in Escherichia coli BL21(DE3) using RARPGTPALRE as substrate incubated for 60 mins in presence of ATP/NADH by enzymatic assay.
In assay [2] the target is T1, Dual specificity tyrosine-phosphorylation-regulated kinase 1A. Put plainly: Inhibition of DYRK1A (unknown origin) using KKISGRLSPIMTEQ as substrate incubated for 30 mins in presence of ATP by ADP-Glo assay. On the technique in general: ADP-Glo turns the ADP formed in a reaction into a luminescent signal.
Assay [3] shares this target. In words: Inhibition of GST-fused recombinant human DYRK1A expressed in Escherichia coli using KKISGRLSPIMTEQ as substrate in presence of ATP.
Assay [4] is described as follows: Displacement of [gamma-33P]-ATP from GSK-3 derived from porcine brain using YRRAAVPPSPSLSRHSSPHQSpEDEEE as substrate incubated for 30 mins by scintillation counting analysis. The arrangement: species or system Sus scrofa.
The target of assay [5] is T1, Dual specificity tyrosine-phosphorylation-regulated kinase 1A. In words: Inhibition of DYRK1A (unknown origin).

Broadly, the IC50 is the point on the concentration scale where inhibition reaches its midpoint.

A value given as a limit tells only on which side of the number the result lay.

For the compound `COc1c(CC=C(C)C)c(O)cc2oc(-c3ccc(O)cc3O)cc12` [LICOCOUMARONE], in assay [1], the IC50 was 12600 nM. For the compound `O=C1CCCc2[nH]c3c(Cl)cccc3c21`, the IC50 in assay [2] worked out at 1600 nM. For the compound `O=c1c2c(ccc3nc(-c4cnccn4)sc32)ncn1Cc1ccccc1`, the IC50 was determined as 113 nM in assay [3] and 6000 nM in assay [4]. In the case of `O=C1c2c([nH]c3c(Cl)cccc23)CCC1N1CCCCC1` (centres undefined), the IC50 in assay [2] was above 10000 nM. In the case of `Nc1ncc(-c2ccccc2F)nc1C(=O)Nc1cnccc1N1CCC(C(=O)O)CC1`, in assay [5], the 50% inhibitory concentration (IC50) was 243 nM.

`O=c1c2c(ccc3nc(-c4cccnc4)sc32)ncn1C1CC1` yielded an IC50 in assay [4] of 68 nM.

Consider `O=c1c2c(ccc3nc(-c4cccnc4)sc32)ncn1Cc1ccccc1`, for which the half-maximal inhibitory concentration (IC50) in assay [4] was 3700 nM.

In assay [5], `Nc1ncc(-c2ccccc2)nc1C(=O)Nc1cnccc1N1CCC(N)CC1` yielded a 50% inhibitory concentration (IC50) of 39 nM.
